The nature of series [1]: Pharmacokinetic study in rodents. It is filed as in vivo, rat. To be noted: for F: PO 5 mg/kg vs IV 1 mg/kg; for Cmax: read-out: C0 or Cmax; for AUC: read-out: AUC (0-z); for Vd: read-out: Vss; for AUC(0-t): read-out: AUC (0-24 h). The procedure: Sprague-Dawley rats (male, 5-6 weeks old) were obtained from Janvier (France). Rats were acclimatized for at least 7 days before treatment and were kept on a 12 hr light/dark cycle (0700-1900). Temperature was maintained at approximately 22° C., and food and water were provided ad libitum. […] After the surgery, rats were housed individually. Rats were deprived of food for at least 16 hours before oral dosing and 6 hours after. Water was provided ad libitum.
Test compounds were orally dosed as a single esophageal gavage at 5 mg/kg under a dosing volume of 5 ml/kg and intravenously dosed as a bolus via the caudal vein at 1 mg/kg under a dosing volume of 5 mL/kg. Each group consisted of 3 rats. […] For compound 11, blood samples were collected at the retro-orbital sinus with lithium heparin as anti-coagulant at the following time points 0.25, 1, 3 and 6 hrs (oral route). Whole blood samples were centrifuged at 5000 rpm for 10 min and the resulting plasma samples were stored at −20° C. pending analysis.
Plasma concentrations of each test compound were determined by an LC-MS/MS method in which the mass spectrometer was operated in positive electrospray mode.
Pharmacokinetic parameters were calculated using Winnonlin® (Pharsight®, United States).

Another series in a line: Aqueous solubility. It is filed as physicochemical. To be noted: kinetic from dmso stock. The protocol: Starting from a 10 mM stock in DMSO, a serial dilution of the compound was prepared in DMSO. The dilution series was transferred to a 96 NUNC Maxisorb plate F-bottom (Cat no. 442404) and 0.2M phosphate buffer pH7.4 or 0.1M citrate buffer pH 3.0 at room temperature was added.
The final concentration ranged from 200 μM to 2.5 μM in 5 equal dilution steps. […] 200 μM Pyrene was added to the corner points of each 96 well plate and served as a reference point for calibration of Z-axis on the microscope.
The assay plates were sealed and incubated for 1 hr at 37° C. while shaking at 230 rpm. The plates were then scanned under a white light microscope, yielding individual pictures of the precipitate per concentration. The precipitate was analyzed and converted into a number which was plotted onto a graph. The first concentration at which the compound appears completely dissolved is the concentration is reported below, however the true concentration lies somewhere between this concentration and one dilution step higher.
Solubility values are reported in μg/mL

Another series deals with TNF release in vivo. The experiment in a line: Septic shock model (LPS-induced TNF release). The note with it: BALB/cJ mice, 30 mg/kg, po, LPS 15 μg/kg ip. On the set-up: species or system mouse. The protocol: Injection of lipopolysaccharide (LPS) induces a rapid release of soluble tumour necrosis factor (TNF-alpha) into the periphery. This model was used to analyse prospective blockers of TNF release in vivo. Six BALB/cJ female mice (20 g) per group were treated at the intended dosing once, po. Thirty minutes later, LPS (15 μg/kg; E. Coli serotype 0111:B4) was injected ip. Ninety minutes later, mice were euthanized and blood was collected. Circulating TNF alpha levels were determined using commercially available ELISA kits. Dexamethasone ([…]) was used as a reference anti-inflammatory compound. Selected compounds were tested at one or multiple doses, e.g. 3 and/or 10 and/or 30 mg/kg, po.

A short description of series [2]: Plasma protein binding (equilibrium dialysis), human. To be noted: 10 μM, 4 hrs at 37° C. It is filed as in vitro ADME. The protocol: A 10 mM stock solution of the compound in DMSO was diluted with a factor 5 in DMSO. This solution was further diluted in freshly thawed human, rat, mouse or dog plasma (BioReclamation INC) with a final concentration of 10 μM and final DMSO concentration of 0.5% (5.5 μL in 1094.5 μL plasma in a PP-Masterblock 96 well (Greiner, Cat no. 780285))
A Pierce Red Device plate with inserts (ThermoScientific, Cat no. 89809) was prepared and filled with 750 μL PBS in the buffer chamber and 500 μL of the spiked plasma in the plasma chamber. The plate was incubated for 4 hrs at 37° C. while shaking at 230 rpm. After incubation, 120 μL of both chambers was transferred to 360 μL acetonitrile in a 96-well round bottom, PP deep-well plates (Nunc, Cat no. 278743) and sealed with an aluminum foil lid. The samples were mixed and placed on ice for 30 min. This plate was then centrifuged 30 min at 1200 rcf at 4° C. and the supernatant was transferred to a 96 v-bottom PP plate (Greiner, 651201) for analysis on LCMS.
The plate is sealed with sealing mats (MA96RD-04S) of www.kinesis.co.uk and samples are measured at room temperature on LCMS (ZQ 1525 from Waters) under optimized conditions using Quanoptimize to determine the appropriate mass of the molecule.
The samples were analyzed on LCMS with a flow rate of […]. Solvent A was 15 mM ammonia and solvent B was acetonitrile. The sample was run under positive ion spray on an XBridge C18 3.5 μM (2.1×30 mm) column, from Waters. The solvent gradient has a total run time of 2 minutes and ranges from 5% B to 95% B.
Peak area from the compound in the buffer chamber and the plasma chamber are considered to be 100% compound.
A general note: In equilibrium dialysis only unbound substance equilibrates across the membrane.

The nature of another series: Caco2 permeability. It is filed as in vitro ADME. To be noted: human; for Papp at 1 h, 10 µM: pH 7.4, Caco-2, 10 μM; for efflux ratio at 1 h, 10 µM: Caco-2, pH 7.4, Papp B>A/Papp A>B. The procedure: Bi-directional Caco-2 assays were performed as described below. Caco-2 cells were obtained from European Collection of Cell Cultures (ECACC, cat 86010202) and used after a 21 day cell culture in 24-well Transwell plates (Fisher TKT-545-020B).
2×10^5 cells/well were seeded in plating medium consisting of DMEM+GlutaMAXI+1% NEAA+10% FBS (FetalClone II)+1% Pen/Strep. The medium was changed every 2-3 days.
Test and reference compounds (propranolol and rhodamine123 or vinblastine, all purchased from Sigma) were prepared in Hanks' Balanced Salt Solution containing 25 mM HEPES (pH7.4) and added to either the apical (125 μL) or basolateral (600 μL) chambers of the Transwell plate assembly at a concentration of 10 μM with a final DMSO concentration of 0.25%.
50 μM Lucifer Yellow (Sigma) was added to the donor buffer in all wells to assess integrity of the cell layers by monitoring Lucifer Yellow permeation. As Lucifer Yellow (LY) cannot freely permeate lipophilic barriers, a high degree of LY transport indicates poor integrity of the cell layer.
After a 1 hr incubation at 37° C. while shaking at an orbital shaker at 150 rpm, 70 μL aliquots were taken from both apical (A) and basal (B) chambers and added to 100 μL1 50:50 acetonitrile:water solution containing analytical internal standard (0.5 μM carbamazepine) in a 96 well plate.
Concentrations of compound in the samples were measured by high performance liquid-chromatography/mass spectroscopy (LC-MS/MS).
The Efflux ratios, as an indication of active efflux from the apical cell surface, were calculated using the ratio of Papp B>A/Papp A>B.
In general terms: Caco-2 monolayers are a common model of the intestinal barrier.

The mark [3] stands for this setting: male, Sprague-Dawley, rat, plasma, po, 5 mg/kg.
Setting [4] is: male, plasma, Sprague-Dawley rat, IV 1 mg/kg.
[5] abbreviates: male, plasma, Sprague-Dawley rat, IV 1 mg/kg (C0).
Where [6] appears, read: male, plasma, Sprague-Dawley rat, PO 5 mg/kg.
Where [7] appears, read: 0.2 M phosphate buffer pH 7.4, 37 °C, pH 7.4, aqueous buffer, 0.2M phosphate buffer pH7.4, read-out: Aqueous solubility pH 7.4.
Setting [8] is: 37 °C, aqueous buffer, 0.1M citrate buffer pH 3.0, read-out: Aqueous solubility pH 3.0.

Like-named read-outs stand apart in the source and are kept apart here. Bounds are passed on as bounds.

A word on the Cmax: it is the peak of the concentration-time curve. By clearance is commonly meant the rate of elimination divided by the concentration. Low values mean a low capacity for elimination, high ones a high capacity for elimination. As usually defined, the AUC is concentration integrated over time. For orientation: Tmax means the time at which the peak concentration occurs. For orientation: solubility means how much of the substance goes into solution per volume. The term Papp denotes the rate of passage across a membrane or cell layer, normalised by area and donor concentration. In general, efflux ratio refers to the permeability from basolateral to apical divided by that in the opposite direction, in the common usage.

The molecule `O=C(Nc1nc2cccc(-c3ccc(CN4CCS(=O)(=O)CC4)cc3)n2n1)C1CC1` [Compound 1, Cyclopropanecarboxylic acid {5-[4-(1,1-dioxo-1-thiomorpholin-4-ylmethyl)-phenyl]-[1,2,4]triazolo [1,5-a]pyridin-2-yl}-amide] had a F in series [1] (Sprague-Dawley rat) of 45%. In series [1] (setting [3]), the Cmax was 310 ng/mL. Also, in series [1] (setting [4]), the clearance is 22.5 mL/min/kg, the AUC stood at 722 ng·h/mL and the Vd was determined as 1.76 L/kg. Also, in series [1] (setting [5]), the Cmax worked out at 1410 ng/mL. Also, in series [1] (setting [6]), the Tmax is 132 min, the AUC(0-t) is 1680 ng·h/mL and the AUC came out at 1430 ng·h/mL. Besides, in the series “Aqueous solubility” (setting [7]), the solubility at 1 h is > 85 µg/mL. In the series “Aqueous solubility” (setting [8]), the solubility at 1 h was > 85 µg/mL. Besides, in the series on TNF release in vivo, the “activity in septic shock model (circulating TNF alpha)” value (from here on “activity in septic shock model”) is “active”. Moreover, the “percentage bound to plasma, Human” value in series [2] was 76.4%. In the series “Caco2 permeability”, this molecule showed a Papp at 1 h, 10 µM of 3.33 ×10⁻⁶ cm/s.

`O=C(Nc1nc2cccc(-c3ccc(CN4CCOCC4)cc3)n2n1)C1CC1` [Compound 2, N-(5-(4-(morpholinomethyl)phenyl)-[1,2,4]triazolo[1,5-a]pyridin-2-yl)cyclopropanecarboxamide]: in series [1] (Sprague-Dawley rat, IV 1 mg/kg), the Cl was 2.12. In series [1] (Sprague-Dawley rat), this molecule registered an F of 62%. The Cmax was 1320 ng/mL in series [1] (setting [3]) and 863 ng/mL in series [1] (setting [5]). In addition, the AUC(0-t) in series [1] (setting [4]) came out at 474 ng·h/mL; in series [1] (setting [6]), 1460 ng·h/mL. Besides, the AUC in series [1] (setting [4]) amounted to 470 ng·h/mL; in series [1] (setting [6]), 1440 ng·h/mL. Moreover, the Vd in series [1] (setting [4]) amounted to 1.46 L/kg. Besides, the Tmax in series [1] (setting [6]) was 19.8 min. Besides, the solubility at 1 h in the series “Aqueous solubility” (setting [7]) and in “Aqueous solubility” (setting [8]) was > 38 µg/mL each time. The “activity in septic shock model” value in the series with TNF release in vivo is listed as “active”. In addition, the “percentage bound to plasma, Human” value in series [2] is recorded as 70.5%. In “Caco2 permeability”, the Papp at 1 h, 10 µM was 25 ×10⁻⁶ cm/s.

As for `O=C(Nc1nc2cccc(-c3ccc(C(=O)N4CCS(=O)(=O)CC4)cc3)n2n1)C1CC1` [Compound 10, Cyclopropanecarboxylic acid {5-[4-(1,1-dioxo-1-thiomorpholine-4-carbonyl)-phenyl]-[1,2,4]triazolo [1,5-a]pyridin-2-yl}-amide], in the series “Aqueous solubility” (setting [7]), the solubility at 1 h is > 87.9 µg/mL. Besides, in “Aqueous solubility” (setting [8]), the solubility at 1 h is > 87.9 µg/mL. Also, the “activity in septic shock model” value in the series on TNF release in vivo was “active”. Besides, in the series “Caco2 permeability”, the efflux ratio at 1 h, 10 µM was determined as 97.6 and the Papp at 1 h, 10 µM turned out to be 0.05 ×10⁻⁶ cm/s.

`O=C(Nc1nc2cccc(-c3ccc(CN4CCC(F)(F)CC4)cc3)n2n1)C1CC1` [Compound 11, Cyclopropanecarboxylic acid {5-[4-(4,4-difluoro-piperidin-1-ylmethyl)-phenyl]-[1,2,4]triazolo [1,5-a]pyridin-2-yl}-amide]: in series [1] (setting [3]), the Cmax was found to be 547 ng/mL. Moreover, in series [1] (setting [6]), the Tmax stood at 15 min and the AUC was 690 ng·h/mL. Further, the “percentage bound to plasma, Human” value in series [2] is 91.25%. In the series “Caco2 permeability”, the efflux ratio at 1 h, 10 µM turned out to be 0.9 and the Papp at 1 h, 10 µM came to 36.5 ×10⁻⁶ cm/s.

The values above are taken from US8563545B2, “Compound useful for the treatment of degenerative and inflammatory diseases” (Galapagos NV, priority 2009, dated 2013).
